The text below walks through data of ChEMBL document CHEMBL5046249, “Synthesis, biological evaluation and cellular localization study of fluorescent derivatives of Jiyuan Oridonin A” (Eur J Med Chem, 2022).

pIC50: −log10 of the molar value. Activity calls are given as the source filed them. The calls are words filed in the database; no cut-off is given here.

The subject of series [1] is HGC-27. Description: Antiproliferative activity against human HGC-27 cells assessed as inhibition of cell growth measured after 72 hrs by SRB assay. Conditions: HGC-27, 72 h. In kind it is functional, cell-based. A general note: The SRB assay estimates cell density from bound dye.
Series [2] concerns PC-3. The series is described as follows: Antiproliferative activity against human PC-3 cells assessed as inhibition of cell growth measured after 72 hrs by SRB assay. In kind it is functional, cell-based. The conditions noted are these: PC-3, 72 h.
Series [3] relates to MGC-803. The series is described as follows: Antiproliferative activity against human MGC-803 cells assessed as inhibition of cell growth measured after 72 hrs by SRB assay. Type of series: functional, cell-based. The conditions noted are these: MGC-803, 72 h.
Series [4] is described as follows: Drug uptake in human HGC-27 cells assessed as increase in fluorescence intensity of green signal at 8 uM measured after 1 hr by fluorescence microscopic analysis. In kind it is ADME, cell-based. The conditions noted are these: hgc-27, 1 h.
In series [5] the test system is TE-1. Description: Antiproliferative activity against human TE-1 cells assessed as inhibition of cell growth measured after 72 hrs by SRB assay. In kind it is functional, cell-based. The conditions noted are these: TE-1, 72 h.
Series [6] relates to SW1990. The series is described as follows: Antiproliferative activity against human SW1990 cells assessed as inhibition of cell growth measured after 72 hrs by SRB assay. In kind it is functional, cell-based. The conditions noted are these: SW1990, 72 h.
Series [7] deals with HGC-27. Description: Induction of apoptosis in human HGC-27 cells assessed as decrease in Bcl-2 expression upto 2 uM measured after 24 hrs by Western blot analysis. Type of series: functional, cell-based. Conditions: dose microM <=2, time 24.0 hrs. For orientation: Immunoblotting shows a protein as a band on a membrane.
In series [8] the test system is HGC-27. Description: Induction of apoptosis in human HGC-27 cells assessed as nuclear cohesion at 0.5 to 2 uM by Hoechst 33342 staining based fluorescence assay. Type of series: functional, cell-based. The conditions noted are these: dose 0.5-2 µM.
Series [9] relates to HGC-27. The series is described as follows: Inhibition of colony formation in human HGC-27 cells measured for 24 hrs by crystal violet staining based assay. In kind it is functional, cell-based. The conditions noted are these: dose microM <=2, time 24.0 hrs.
For series [10], the system named is HGC-27. The series is described as follows: Induction of apoptosis in human HGC-27 cells assessed as increase in cytochrome-c expression upto 2 uM measured after 24 hrs by Western blot analysis. In kind it is functional, cell-based. Conditions: dose microM <=2, time 24.0 hrs.
Series [11] deals with HGC-27. The series is described as follows: Induction of apoptosis in human HGC-27 cells assessed as increase in Bax expression upto 2 uM measured after 24 hrs by Western blot analysis. Type of series: functional, cell-based. Conditions: dose microM <=2, time 24.0 hrs.
Series [12] in a line: Drug localization in mitochondria of human HGC-27 cells at 2 uM incubated for 1 hr by Mitotracker red dye based confocal laser microscopy analysis. Type of series: ADME. The conditions noted are these: hgc-27, 1 h.
Series [13] has as its system HGC-27. The series is described as follows: Induction of apoptosis in human HGC-27 cells assessed as increase in total apoptotic cells by Hoechst 33342 staining based fluorescence assay. Type of series: functional, cell-based. Conditions: dose 0.5-2 µM.
The subject of series [14] is HGC-27. The series is described as follows: Induction of mitochondrial membrane potential loss in human HGC-27 cells assessed as decrease in red fluorescence intensity upto 2 uM incubated for 24 hrs by TMRM dye based flow cytometric analysis. Conditions: dose microM <=2, time 24.0 hrs. Type of series: functional, cell-based. On the technique in general: A flow cytometer gives signals particle by particle.

For series [15], the system named is HGC-27. The series is described as follows: Induction of apoptosis in human HGC-27 cells assessed as nuclear rupture at 0.5 to 2 uM by Hoechst 33342 staining based fluorescence assay. In kind it is functional, cell-based. The conditions noted are these: dose 0.5-2 µM.
Series [16] has as its system HGC-27. The series is described as follows: Induction of apoptosis in human HGC-27 cells assessed as increase in cleaved caspase-9 expression upto 2 uM measured after 24 hrs by Western blot analysis. The conditions noted are these: dose microM <=2, time 24.0 hrs. Type of series: functional, cell-based.
Series [17] can be described thus: Cytotoxicity against human GES1 cells assessed as inhibition of cell growth measured after 72 hrs by SRB assay. Type of series: toxicity, cell-based.
Series [18] can be described thus: Drug localization in nucleus of human HGC-27 cells at 2 uM incubated for 1 hr by DAPI staining based confocal laser microscopic analysis. Type of series: ADME, cell-based. The conditions noted are these: hgc-27, 1 h.
Series [19] is described as follows: Drug uptake in human HGC-27 cells assessed as increase in fluorescence intensity by fluorescence microscopic analysis. Conditions: dose 2-8 µM, time <=60 min. In kind it is ADME, cell-based.
For series [20], the system named is HGC-27. Description: Induction of apoptosis in human HGC-27 cells assessed as enhance brightness of fluorescence at 0.5 to 2 uM by Hoechst 33342 staining based fluorescence assay. Conditions: dose 0.5-2 µM. In kind it is functional, cell-based.
The test system of series [21] is HGC-27. Description: Antimigratory activity against human HGC-27 cells assessed as inhibition of cell migration measured after 24 hrs by cell scratch assay. In kind it is functional, cell-based. Conditions: dose microM <=2, time 24.0 hrs.
Series [22] deals with HGC-27. The series is described as follows: Induction of apoptosis in human HGC-27 cells assessed as increase in cleaved caspase-3 expression upto 2 uM measured after 24 hrs by Western blot analysis. In kind it is functional, cell-based. Conditions: dose microM <=2, time 24.0 hrs.

Regarding `C=C1C(=O)[C@]23[C@H](O)[C@H]1C[C@H](O)[C@H]2[C@]12CCCC(C)(C)[C@H]1C[C@H]3O[C@H]2O`, the pIC50 – broadly, the negative decadic logarithm of the IC50, by convention in mol/L – in series [1] was 5.30; in [2], 5.07; in series [3] it was 5.14; in [5], 5.05; in series [6] it was 5.13. The Drug uptake entry in series [4] was “Not Active”.

Take `O=C1c2cccc3c(N4CCCCC4)ccc(c23)C(=O)N1CCOCCOCCOCCn1cc(CCCO)nn1`: the pIC50 in series [1], in [2], in series [3], in series [5] and in series [6] was under 4.49 throughout. In addition, the Drug uptake entry in series [4] was “Not Active”.

For the compound `C=C1C(=O)[C@]23[C@H](O)[C@H]1C[C@H](O)[C@H]2[C@]12CCCC(C)(C)[C@H]1C[C@H]3O[C@H]2OCCCCCc1cn(CCOCCOCCOCCN2C(=O)c3cccc4c(N5CCCCC5)ccc(c34)C2=O)nn1`, the result in series [7], in series [8], in series [10], in series [11], in [13] and in series [14] was Active. The result in series [15], in series [16], in series [20] and in series [22] was Active. Also, the Activity result in series [9] and in [21] was “Dose-Dependent Effect” each time. The Drug uptake entry in [12] was “Active”; in [4], “Active”; in [18] it was “Not Active”; in series [19], “Dose-Dependent Effect and Tde”. In addition, the pIC50 was 6.41 in [1]; 6.17 in series [2]; 6.19 in [3]; 6.14 in series [5]; 6.07 in series [6]. Besides, in series [17], the IC50 – broadly, the concentration that inhibits the measured activity by half – at 72 h came out at 18.1 µM.

For `C=C1C(=O)[C@]23[C@H](O)[C@H]1C[C@H](O)[C@H]2[C@]12CCCC(C)(C)[C@H]1C[C@H]3O[C@H]2OCCCCc1cn(CCCCCCN2C(=O)c3cccc4c(N5CCCCC5)ccc(c34)C2=O)nn1`, the pIC50 is 5.68 in series [1]; 5.66 in series [2]; 5.68 in series [3]; 5.36 in series [5]; 5.54 in series [6].

In the case of `[N-]=[N+]=NCCOCCN1C(=O)c2cccc3c(N4CCCCC4)ccc(c23)C1=O`, the pIC50 in series [1], in [2], in [3], in [5] and in [6] was under 4.49 in each case.

Take `C=C1C(=O)[C@]23[C@H](O)[C@H]1C[C@H](O)[C@H]2[C@]12CCCC(C)(C)[C@H]1C[C@H]3O[C@H]2OCCc1cn(CCCCCCN2C(=O)c3cccc4c(N5CCCCC5)ccc(c34)C2=O)nn1`: the pIC50 was 5.51 in series [1]; 6.10 in series [2]; 5.80 in [3]; 5.35 in [5]; 5.85 in series [6].

Turning to `C=C1C(=O)[C@]23[C@H](O)[C@H]1C[C@H](O)[C@H]2[C@]12CCCC(C)(C)[C@H]1C[C@H]3O[C@H]2OCCCCCCc1cn(CCN2C(=O)c3cccc4c(N5CCCCC5)ccc(c34)C2=O)nn1`, the pIC50 was 5.43 in [1]; 5.80 in [2]; 5.49 in [3]; 5.33 in series [5]; 5.54 in series [6].
